In paper PMC11497074 (RSC Advances, 2024) one finds IC50 data, which are given here for one compound.

This experiment addresses CA IX (Homo sapiens, UniProt Q16790). The experiment can be described thus: biochemical.

`O=c1ccc2ccc(O[C@@H]3O[C@H](CO)[C@@H](O)[C@H](O)[C@H]3O)cc2o1` [Skimmin, skimmin] came in with an IC50 of 0.548 ± 0.0357 µM.

The term IC50 denotes the concentration at which inhibition is half-maximal.
